Patent US9980928B2, “Hydroxy aliphatic substituted phenyl aminoalkyl ether derivatives” (PROUS INSTITUTE FOR BIOMEDICAL RESEARCH, S.A., priority 2012, dated 2018)
Counter-ions that a name gives are not always drawn. Like-named read-outs stand apart in the source and are kept apart here.

What was measured:
uptake of norepinephrine = uptake of norepinephrine (Homo sapiens, UniProt P23975); assay: Uptake inhibition of norepinephrine, cellular assay; assay type: cell-based
Procedure: (§1) The effect of the compounds of the present invention as inhibitors of the uptake of norepinephrine and serotonin in cellular assays at concentrations that range from […] to 1 nM is determined following the methods described in Galli, A. et al. J Exp Biol 1995, 198(Pt. 10): 2197-212 and Gu, H. et al. J Biol Chem. 1994, 269(10):7124-30.

uptake of serotonin = uptake of serotonin (Homo sapiens, UniProt P31645); assay: Uptake inhibition of serotonin, cellular assay; assay type: cell-based
Procedure: as §1

[1] = biological target: T1, norepinephrine (NE) transporter (Homo sapiens, UniProt P23975); assay: Norepinephrine transporter binding radioligand inhibition ([3H]-nisoxetine); conditions: concentration 10 μM
T1 construct: expressed in transfected cells; host or cells: CHO cells
Procedure: The norepinephrine (NE) transporter removes NE from the synaptic cleft. The NE transporter terminates the effects of […], enabling its reuse by the presynaptic neuron. The in vitro binding of the compounds of the invention to the NE transporter and the percent inhibition of control-specific binding ([^3H]-nisoxetine in human recombinant CHO cells) is determined following the method described in Pacholczyk et al., (Nature 1991, 350(6316): 350-4.

serotonin transporter = biological target: T2, serotonin transporter (Homo sapiens, UniProt P31645); assay: Serotonin transporter binding radioligand inhibition ([3H]-imipramine); conditions: read-out: serotonin binding inhibition
T2 construct: expressed in transfected cells; host or cells: CHO cells
Source text: The serotonin transporter removes serotonin from the synaptic deft. The serotonin transporter terminates the effects of […], enabling its reuse by the presynaptic neuron.

[2] = Norepinephrine reuptake inhibition (IC50 μM)
[3] = Serotonin reuptake inhibition (IC50 μM)
[4] = read-out: Norepinephrine reuptake inhibition (IC50 μM)
[5] = read-out: Serotonin reuptake inhibition (IC50 μM)

T1 sequence (P23975 whole entry): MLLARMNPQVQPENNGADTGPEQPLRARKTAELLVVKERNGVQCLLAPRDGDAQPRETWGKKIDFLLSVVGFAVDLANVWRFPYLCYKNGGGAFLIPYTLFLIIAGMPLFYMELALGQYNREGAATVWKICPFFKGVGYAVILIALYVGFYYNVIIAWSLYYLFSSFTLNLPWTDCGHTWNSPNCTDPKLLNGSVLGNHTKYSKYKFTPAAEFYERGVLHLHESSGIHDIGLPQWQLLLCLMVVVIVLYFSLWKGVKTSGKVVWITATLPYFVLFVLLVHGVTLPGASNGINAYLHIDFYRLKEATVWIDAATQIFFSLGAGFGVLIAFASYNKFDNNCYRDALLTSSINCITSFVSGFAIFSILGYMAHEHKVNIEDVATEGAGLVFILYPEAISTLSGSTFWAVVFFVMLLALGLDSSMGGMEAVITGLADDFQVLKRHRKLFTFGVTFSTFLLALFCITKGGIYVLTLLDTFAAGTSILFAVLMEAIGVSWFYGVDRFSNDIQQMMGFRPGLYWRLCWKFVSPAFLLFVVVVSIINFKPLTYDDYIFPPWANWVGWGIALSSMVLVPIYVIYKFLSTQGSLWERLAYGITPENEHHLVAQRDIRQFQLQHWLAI
Sequence of uptake of norepinephrine (P23975 whole entry): as above
T2 sequence (P31645 whole entry): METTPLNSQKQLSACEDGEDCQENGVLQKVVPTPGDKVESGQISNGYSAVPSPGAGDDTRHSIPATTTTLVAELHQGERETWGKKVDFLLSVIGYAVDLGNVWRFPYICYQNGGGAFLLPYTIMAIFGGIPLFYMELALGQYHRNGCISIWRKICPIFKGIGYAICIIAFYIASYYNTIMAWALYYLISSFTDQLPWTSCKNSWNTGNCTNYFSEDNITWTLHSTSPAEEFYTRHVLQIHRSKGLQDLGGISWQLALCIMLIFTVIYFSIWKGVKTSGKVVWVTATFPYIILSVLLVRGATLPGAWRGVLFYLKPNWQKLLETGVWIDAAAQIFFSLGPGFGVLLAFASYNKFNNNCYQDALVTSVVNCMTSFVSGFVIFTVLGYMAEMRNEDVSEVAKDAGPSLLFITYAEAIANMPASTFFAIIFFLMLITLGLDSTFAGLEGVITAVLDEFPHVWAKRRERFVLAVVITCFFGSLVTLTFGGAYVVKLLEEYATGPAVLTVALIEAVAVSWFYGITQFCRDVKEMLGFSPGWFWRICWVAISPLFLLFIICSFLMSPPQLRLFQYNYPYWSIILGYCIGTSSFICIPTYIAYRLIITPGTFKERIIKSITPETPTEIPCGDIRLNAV
Sequence of uptake of serotonin (P31645 whole entry): as above

| SMILES | IC50 (uptake of norepinephrine; [2]) [µM] | IC50 (uptake of serotonin; [3]) [µM] | inhibition at 10 µM [1] [%] | inhibition at 10 µM (serotonin transporter; concentration 10 μM) [%] | IC50 (uptake of norepinephrine; [4]) [µM] | IC50 (uptake of serotonin; [5]) [µM] | inhibition at 10 µM (serotonin transporter) [%] |
| --- | --- | --- | --- | --- | --- | --- | --- |
| CNCCC(Oc1ccc(CCO)cc1)c1ccccc1 [Example 9, 2-[4-[3-(Methylamino)-1-phenylpropoxy]phenyl]ethanol (R)-lipoic acid salt] | 1.6 to 2.9 | 2.5 to 4.8 |  |  |  |  |  |
| CNCCC(Oc1ccc(CCCCO)cc1)c1ccccc1 (centres unmarked) [Example 14, 4-[4-[3-(Methylamino)-1-phenylpropoxy]phenyl]butan-1-ol hydrochloride] |  |  | 85 | 89 | 0.74 | 0.32 |  |
| CN(CCC(Oc1ccc(/C=C/CO)cc1)c1ccccc1)C(=O)OC(C)(C)C (centres unmarked) [Example 15, (E)-tert-Butyl [3-[4-(3-hydroxyprop-1-enyl)phenoxy]-3-phenylpropyl](methyl)carbamate] |  |  | 65 to 90 | 68 to 82 | 1.6 to 2.9 | 2.5 to 4.8 |  |
| CNCCC(Oc1ccc(CCCCCCO)cc1)c1ccccc1 (centres unmarked) [Example 26, 6-[4-(3-Methylamino-1-phenylpropoxy)phenyl]hexan-1-ol] |  |  | 65 to 90 | 68 to 82 | 1.6 to 2.9 | 2.5 to 4.8 |  |
| CNCCC(Oc1ccc(CCO[C@@H]2O[C@H](CO)[C@@H](O)[C@H](O)[C@H]2O)cc1)c1ccccc1 (stereo partly drawn) [Example 23, (2R,3S,4S,5R,6R)-2-(Hydroxymethyl)-6-[4-[3-(methylamino)-1-phenylpropoxy]phenethoxy]tetrahydro-2H-pyran-3,4,5-triol] |  |  | 65 to 90 | 68 to 82 | 1.6 to 2.9 | 2.5 to 4.8 |  |
| CNCCC(Oc1ccc(C/C=C/CO)cc1)c1ccccc1 (centres unmarked) [Example 25, 4-[4-(3-Methylamino-1-phenylpropoxy)phenyl]but-2-en-1-ol] |  |  | 65 to 90 | 68 to 82 | 1.6 to 2.9 | 2.5 to 4.8 |  |
| CNCCC(Oc1ccc(CCO)cc1)c1ccccc1 [Example 5, 2-[4-[3-(Methylamino)-1-phenylpropoxy]phenyl]ethanol L-ascorbic acid salt] | 1.6 to 2.9 | 2.5 to 4.8 | 65 to 90 |  |  |  | 68 to 82 |
| CNCCC(Oc1ccc(CCOC(C)=O)cc1)c1ccccc1 (centres unmarked) [Example 10, 4-[3-(Methylamino)-1-phenylpropoxy]phenethyl acetate hydrochloride] |  |  | 65 to 90 | 68 to 82 | 1.6 to 2.9 | 2.5 to 4.8 |  |
| CNCCC(Oc1ccc(CCCO)cc1)c1ccccc1 (centres unmarked) [Example 16, 3-[4-[3-(Methylamino)-1-phenylpropoxy]phenyl]propan-1-ol hydrochloride] |  |  | 90 | 78 | 0.46 | 2.36 |  |
| CNCCC(Oc1ccc(CO)cc1)c1ccccc1 (centres unmarked) [Example 17, [4-[3-(Methylamino)-1-phenylpropoxy]phenyl]methanol hydrochloride] |  |  | 94 | 97 | 0.13 | 0.42 |  |
| OCCc1ccc(OC[C@@H]2CNCC[C@H]2c2ccc(F)cc2)cc1 [Example 30, 2-[4-[[(3S,4R)-4-(4-Fluorophenyl)piperidin-3-yl]methoxy]phenyl]ethanol] |  |  | 65 to 90 | 68 to 82 | 1.6 to 2.9 | 2.5 to 4.8 |  |
| CN(C)CCC(Oc1ccc(CCO)cc1)c1ccccc1 (centres unmarked) [Example 24, 2-[4-(3-Dimethylamino-1-phenylpropoxy)phenyl]ethanol] |  |  | 65 to 90 | 68 to 82 | 1.6 to 2.9 | 2.5 to 4.8 |  |
| CN(C)CC(Oc1ccc(CCO)cc1)C1CCCCC1O (centres unmarked) [Example 31, 2-[2-Dimethylamino-1-[4-(2-hydroxyethyl)phenoxy]ethyl]cyclohexanol] |  |  | 65 to 90 | 68 to 82 | 1.6 to 2.9 | 2.5 to 4.8 |  |
| CNCCC(Oc1cc(CO)cc(CO)c1)c1ccccc1 (centres unmarked) [Example 19, [5-[3-(Methylamino)-1-phenylpropoxy]-1,3-phenylene]dimethanol hydrochloride] |  |  | 75 | 79 | 1.59 | 4.35 |  |
| CNCCC(Oc1cc(CCCO)cc(CCCO)c1)c1ccccc1 (centres unmarked) [Example 21, 3,3′-[5-[3-(Methylamino)-1-phenylpropoxy]-1,3-phenylene]dipropan-1-ol] |  |  | 65 to 90 | 68 to 82 | 1.6 to 2.9 | 2.5 to 4.8 |  |
| CNCC[C@@H](Oc1ccc(CCO)cc1)c1cccs1 [Example 13, (R)-2-[4-[3-(Methylamino)-1-(thiophen-2-yl)propoxy]phenyl]ethanol] |  |  | 80 | 79 | 2.8 | 2.6 |  |
| CNCCC(Oc1ccc(CCO)cc1)c1ccccc1 (single isomer, unassigned) [Example 7, 2-[4-[3-(Methylamino)-1-phenylpropoxy]phenyl]ethanol caffeic acid salt] |  |  |  | 68 to 82 | 1.6 to 2.9 | 2.5 to 4.8 |  |
| CNCCC(Oc1cc(CCCCO)cc(CCCCO)c1)c1ccccc1 (centres unmarked) [Example 22, 4,4′-[5-[3-(Methylamino)-1-phenylpropoxy]-1,3-phenylene]dibutan-1-ol] |  |  | 65 to 90 | 68 to 82 | 1.6 to 2.9 | 2.5 to 4.8 |  |
| O=C1CCCN1CCOc1ccc(CCO)cc1 [Example 1, 1-[2-[4-(2-Hydroxyethyl)phenoxy]ethyl]pyrrolidin-2-one] |  |  | 65 to 90 | 68 to 82 | 1.6 to 2.9 | 2.5 to 4.8 |  |
| CNCCC(Oc1ccc(/C=C/CCCCO)cc1)c1ccccc1 (centres unmarked) [Example 27, 6-[4-(3-Methylamino-1-phenylpropoxy)phenyl]hex-5-en-1-ol] |  |  | 65 to 90 | 68 to 82 | 1.6 to 2.9 | 2.5 to 4.8 |  |
| CCCC(CCC)C(=O)N(C)CCC(Oc1ccc(CCO)cc1)c1ccccc1 (centres unmarked) [Example 11, N-[3-[4-(2-Hydroxyethyl)phenoxy]-3-phenylpropyl]-N-methyl-2-propylpentanamide] |  |  | 65 to 90 | 68 to 82 | 1.6 to 2.9 | 2.5 to 4.8 |  |
| CNCCC(Oc1ccc(CCO)cc1)c1ccccc1 (centres unmarked) [Example 8, 2-[4-[3-(Methylamino)-1-phenylpropoxy]phenyl]ethanol valproic acid salt] | 1.6 to 2.9 | 2.5 to 4.8 |  |  |  |  |  |
| CNCC[C@H](Oc1ccc(CCO)cc1)c1cccs1 [Example 28, (S)2-[4-(3-Methylamino-1-thiophen-2-ylpropoxy)phenyl]ethanol] |  |  | 65 to 90 | 68 to 82 | 1.6 to 2.9 | 2.5 to 4.8 |  |
| CNCCC(Oc1ccc(CCO)cc1)c1ccccc1 (single isomer, unassigned) [Example 6, 2-[4-[3-(Methylamino)-1-phenylpropoxy]phenyl]ethanol ferulic acid salt] |  |  |  |  | 1.6 to 2.9 | 2.5 to 4.8 |  |
| CN(C)CC(Oc1ccc(CCO)cc1)C1(O)CCCCC1 (centres unmarked) [Example 32, 1-[2-Dimethylamino-1-[4-(2-hydroxyethyl)phenoxy]-ethyl]-cyclohexanol] |  |  | 65 to 90 | 68 to 82 | 1.6 to 2.9 | 2.5 to 4.8 |  |
| OCCc1ccc(OC(c2ccccc2)C2CNCCO2)cc1 (centres unmarked) [Example 29, 2-[4-(Morpholin-2-yl(phenyl)methoxy)phenyl]ethanol] |  |  | 65 to 90 | 68 to 82 | 1.6 to 2.9 | 2.5 to 4.8 |  |
| CNCCC(Oc1cc(CCO)cc(CCO)c1)c1ccccc1 (centres unmarked) [Example 20, 2,2′-[5-[3-(Methylamino)-1-phenylpropoxy]-1,3-phenylene]diethanol] |  |  | 65 to 90 | 68 to 82 | 1.6 to 2.9 | 2.5 to 4.8 |  |
